Our source for the β-arrestin % inhibition, cAMP % inhibition and EC50 values is patent US9926275B2 (priority 2013, dated 2018).

For assay [1], the target named is T1, CB1 receptor (Homo sapiens, UniProt P21554). Briefly: β-arrestin recruitment in CNR1 PathHunter cell line, allosteric modulation of CP55,940 response. The assay is classed as cell-based. The protocol:
(§1) For allosteric determination, cells were preincubated with compound followed by agonist challenge at the EC20 concentration of the agonist. 5 μL of 4× compound was added to cells and incubated at 37° C. for 30 minutes. 5 μL of 4× EC20 agonist was added to cells and incubated at 37° C. for 30 minutes.
(§2) Data Analysis: Dose curves were plotted using GraphPad Prism or Activity Base. The percentage activity is calculated using the following formula: % Activity=100%×(1−(mean RLU of test sample−mean RLU of MAX control)/(mean RLU of vehicle control [EC20 for PAM]−mean RLU of MAXcontrol).
(§3) Agonist (CP55,940) dose curves were performed for the CNR1 PathHunter and cAMP Hunter cell lines. […] The cAMP assay was performed in the presence of 20 μM forskolin (EC80).
(§4) In Vitro Evaluation: The in vitro evaluation of the covalent allosteric modulators was performed using as described previously.
(In general: Activated receptors often draw arrestin, which recruitment assays turn into a signal.)

Assay [2] deals with T1, CB1 receptor. Description: DiscoveRx HitHunter cAMP XS+ assay in cAMP Hunter cell line, allosteric modulation of CP55,940 response. The assay is classed as cell-based. The protocol:
Once it was established that the cells were healthy and growing normally, cells were passaged from flasks using cell dissociation reagent buffer and seeded into white walled clear bottom 384-well microplates for compound profiling. For profiling, cells were seeded at a density of 10000 cells per well in a total volume of 20 μL and were allowed to adhere and recover overnight prior to compound addition. Cells were treated the following day using the protocols shown below. cAMP modulation was determined using the DiscoveRx HitHunter cAMP XS+ assay.
Media was aspirated from cells and replaced with 10 μL 1:1 HBSS/Hepes: cAMP XS+ Ab reagent. Agonist (CP55,940) dose curves were performed to determine the EC20 value for the testing with the compounds of the present technology. 5 μL of 4× agonist was added to each well with an equal concentration of vehicle present. EC20 agonist concentration was determined directly from agonist dose curve.
as §1
Signal Detection: After appropriate compound incubation, assay signal was generated through incubation with 20 μL cAMP XS+ED/CL lysis cocktail for one hour followed by incubation with 20 μL cAMP XS+EA reagent for three hours at room temperature. Microplates were read following signal generation with a PerkinElmer Envision™ instrument for chemiluminescent signal detection.
as §2, §3, §4

The mark [3] stands for this setting: Table 1, CP55,940 as agonist, read-out: β-arrestin EC50.
The mark [4] stands for this setting: Table 1, preincubation with compound, then CP55,940 challenge, 20 μM forskolin.
[5] abbreviates: Table 1, preincubation with compound, then CP55,940 challenge, 20 μM forskolin, read-out: cAMP EC50.

Read-outs that look alike come from different tables or passages of the source.

T1 sequence (P21554 whole entry): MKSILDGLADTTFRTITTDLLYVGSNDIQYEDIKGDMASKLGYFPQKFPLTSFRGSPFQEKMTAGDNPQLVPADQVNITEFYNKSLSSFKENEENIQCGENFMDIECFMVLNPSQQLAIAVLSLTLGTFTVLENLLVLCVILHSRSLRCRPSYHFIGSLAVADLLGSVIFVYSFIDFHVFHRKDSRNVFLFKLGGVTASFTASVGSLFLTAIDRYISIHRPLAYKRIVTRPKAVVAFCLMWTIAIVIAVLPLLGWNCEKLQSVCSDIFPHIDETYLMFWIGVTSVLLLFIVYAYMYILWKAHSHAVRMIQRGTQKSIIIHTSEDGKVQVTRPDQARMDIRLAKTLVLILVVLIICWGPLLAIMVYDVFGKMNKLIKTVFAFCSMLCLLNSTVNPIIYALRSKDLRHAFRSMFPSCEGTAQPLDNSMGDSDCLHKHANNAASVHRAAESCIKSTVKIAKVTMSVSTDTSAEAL

Turning to `O=C(Nc1ccc(Cl)cc1)Nc1cccc(-c2cccc(N3CCCC3)n2)c1` [Compound 10a, 1-(4-Chlorophenyl)-3-(3-(6-(pyrrolidin-1-yl)pyridin-2-yl)phenyl)urea], the β-arrestin % inhibition at CB1 receptor [1] came to 109%. Further, the cAMP % inhibition on CB1 receptor [2] came to 108%.
Regarding `O=C(Nc1ccc(I)cc1)Nc1cccc(-c2cccc(N3CCCC3)n2)c1` [Compound 10b, 1-(4-Iodophenyl)-3-(3-(6-(pyrrolidin-1-yl)pyridin-2-yl)phenyl)urea], at CB1 receptor [1] (Table 1, CP55,940 as agonist), the β-arrestin % inhibition came out at 133%. The EC50 (as a rule, the concentration at which the effect is half-maximal) at CB1 receptor [1] (setting [3]) came to 27 nM; on CB1 receptor [2] (setting [5]), 223 nM. The cAMP % inhibition on CB1 receptor [2] (setting [4]) is 126%.
The matching figures for `O=C(Nc1cccc(Cl)c1)Nc1cccc(-c2cccc(N3CCCC3)n2)c1` [Compound 10c, 1-(3-Chlorophenyl)-3-(3-(6-(pyrrolidin-1-yl)pyridin-2-yl)phenyl)urea]: 128%, 260 nM, 782 nM and 111%.
As for `O=C(Nc1cccc(-c2cccc(N3CCCC3)n2)c1)Nc1ccccc1Cl` [Compound 10d, 1-(2-Chlorophenyl)-3-(3-(6-(pyrrolidin-1-yl)pyridin-2-yl)phenyl)urea], the β-arrestin % inhibition at CB1 receptor [1] (Table 1, CP55,940 as agonist) came to 105%. In addition, the 50% effective concentration (EC50) on CB1 receptor [1] (setting [3]) is 2170 nM; at CB1 receptor [2] (setting [5]), more than 10000 nM. In addition, the cAMP % inhibition at CB1 receptor [2] (setting [4]) came out at 39%.
On to `O=C(Nc1ccc(C(F)(F)F)cc1)Nc1cccc(-c2cccc(N3CCCC3)n2)c1` [Compound 10e, 1-(3-(6-(Pyrrolidin-1-yl)pyridin-2-yl)phenyl)-3-(4-(trifluoromethyl)phenyl)urea], for which the β-arrestin % inhibition at CB1 receptor [1] (Table 1, CP55,940 as agonist) is 128%. Moreover, the results for the EC50 at CB1 receptor [1] (setting [3]) and at CB1 receptor [2] (setting [5]) were 51 nM and 218 nM, respectively. At CB1 receptor [2] (setting [4]), the cAMP % inhibition came out at 161%.
The matching figures for `O=C(Nc1cccc(-c2cccc(N3CCCC3)n2)c1)Nc1cccc(C(F)(F)F)c1` [Compound 10f, 1-(3-(6-(Pyrrolidin-1-yl)pyridin-2-yl)phenyl)-3-(3-(trifluoromethyl)phenyl)urea]: 129%, 220 nM, 242 nM and 116%.
For `O=C(Nc1cccc(-c2cccc(N3CCCC3)n2)c1)Nc1ccccc1C(F)(F)F` [Compound 10g, 1-(3-(6-(Pyrrolidin-1-yl)pyridin-2-yl)phenyl)-3-(2-(trifluoromethyl)phenyl)urea], the β-arrestin % inhibition at CB1 receptor [1] (Table 1, CP55,940 as agonist) was 123%. The 50% effective concentration (EC50) on CB1 receptor [1] (setting [3]) stood at 2090 nM; on CB1 receptor [2] (setting [5]), 1160 nM. For the same compound, on CB1 receptor [2] (setting [4]), the cAMP % inhibition came out at 119%.
The matching figures for `COc1ccc(NC(=O)Nc2cccc(-c3cccc(N4CCCC4)n3)c2)cc1` [Compound 10h, 1-(4-Methoxyphenyl)-3-(3-(6-(pyrrolidin-1-yl)pyridin-2-yl)phenyl)urea]: 98%, 99 nM, 1230 nM and 97%.
The matching figures for `COc1cccc(NC(=O)Nc2cccc(-c3cccc(N4CCCC4)n3)c2)c1` [Compound 10i, 1-(3-Methoxyphenyl)-3-(3-(6-(pyrrolidin-1-yl)pyridin-2-yl)phenyl)urea]: 109%, 497 nM, 1790 nM and 92%.
For the compound `COc1ccccc1NC(=O)Nc1cccc(-c2cccc(N3CCCC3)n2)c1` [Compound 10j, 1-(2-Methoxyphenyl)-3-(3-(6-(pyrrolidin-1-yl)pyridin-2-yl)phenyl)urea], at CB1 receptor [1] (Table 1, CP55,940 as agonist), the β-arrestin % inhibition is recorded as 93%. Further, the figures for the EC50 at CB1 receptor [1] (setting [3]) and on CB1 receptor [2] (setting [5]) were 1230 nM and more than 10000 nM, respectively. Besides, the cAMP % inhibition at CB1 receptor [2] (setting [4]) came to 0%.
Turning to `O=C(Nc1ccc(Oc2ccccc2)cc1)Nc1cccc(-c2cccc(N3CCCC3)n2)c1` [Compound 10k, 1-(4-Phenoxyphenyl)-3-(3-(6-(pyrrolidin-1-yl)pyridin-2-yl)phenyl)urea], at CB1 receptor [1] (Table 1, CP55,940 as agonist), the β-arrestin % inhibition was 123%. In addition, the results for the EC50 at CB1 receptor [1] (setting [3]) and at CB1 receptor [2] (setting [5]) were 115 nM and 750 nM, respectively. For the same compound, the cAMP % inhibition at CB1 receptor [2] (setting [4]) is listed as 91%.
As for `O=C(Nc1cccc(Oc2ccccc2)c1)Nc1cccc(-c2cccc(N3CCCC3)n2)c1` [Compound 10l, 1-(3-Phenoxyphenyl)-3-(3-(6-(pyrrolidin-1-yl)pyridin-2-yl)phenyl)urea], the β-arrestin % inhibition at CB1 receptor [1] (Table 1, CP55,940 as agonist) stood at 117%. In addition, the EC50 is 86 nM on CB1 receptor [1] (setting [3]) and 2240 nM at CB1 receptor [2] (setting [5]). For the same compound, at CB1 receptor [2] (setting [4]), the cAMP % inhibition is reported as 57%.
For `O=C(Nc1cccc(-c2cccc(N3CCCC3)n2)c1)Nc1ccccc1Oc1ccccc1` [Compound 10m, 1-(2-Phenoxyphenyl)-3-(3-(6-(pyrrolidin-1-yl)pyridin-2-yl)phenyl)urea], on CB1 receptor [1] (Table 1, CP55,940 as agonist), the β-arrestin % inhibition is reported as 80%. Besides, the EC50 at CB1 receptor [1] (setting [3]) was 795 nM; at CB1 receptor [2] (setting [5]), more than 10000 nM. Besides, the cAMP % inhibition on CB1 receptor [2] (setting [4]) is 18%.
For the compound `Cc1ccc(NC(=O)Nc2cccc(-c3cccc(N4CCCC4)n3)c2)cc1` [Compound 10n, 1-(3-(6-(Pyrrolidin-1-yl)pyridin-2-yl)phenyl)-3-(p-tolyl)urea], the β-arrestin % inhibition at CB1 receptor [1] was 127%. Moreover, the EC50 worked out at 119 nM on CB1 receptor [1] (β-arrestin EC50 nM) and 764 nM on CB1 receptor [2] (cAMP EC50 nM). Besides, the cAMP % inhibition on CB1 receptor [2] is recorded as 122%.
Turning to `Cc1cccc(NC(=O)Nc2cccc(-c3cccc(N4CCCC4)n3)c2)c1` [Compound 10o, 1-(3-(6-(Pyrrolidin-1-yl)pyridin-2-yl)phenyl)-3-(m-tolyl)urea], on CB1 receptor [1] (Table 1, CP55,940 as agonist), the β-arrestin % inhibition is recorded as 125%. The EC50 came to 734 nM at CB1 receptor [1] (setting [3]) and 483 nM on CB1 receptor [2] (setting [5]). Further, on CB1 receptor [2] (setting [4]), the cAMP % inhibition is on record as 65%.
On to `Cc1ccccc1NC(=O)Nc1cccc(-c2cccc(N3CCCC3)n2)c1` [Compound 10p, 1-(3-(6-(Pyrrolidin-1-yl)pyridin-2-yl)phenyl)-3-(o-tolyl)urea], for which, on CB1 receptor [1] (Table 1, CP55,940 as agonist), the β-arrestin % inhibition is recorded as 104%. Further, the EC50 came to 361 nM on CB1 receptor [1] (setting [3]) and 1700 nM at CB1 receptor [2] (setting [5]). Also, at CB1 receptor [2] (setting [4]), the cAMP % inhibition is on record as 97%.
On to `O=C(Nc1ccccc1)Nc1cccc(-c2cccc(N3CCCC3)n2)c1` [Compound 10q, 1-Phenyl-3-(3-(6-(pyrrolidin-1-yl)pyridin-2-yl)phenyl)urea], for which, at CB1 receptor [1] (Table 1, CP55,940 as agonist), the β-arrestin % inhibition came out at 135%. Also, the EC50 worked out at 110 nM on CB1 receptor [1] (setting [3]) and 501 nM at CB1 receptor [2] (setting [5]).
As to `CCc1ccccc1NC(=O)Nc1cccc(-c2cccc(N3CCCC3)n2)c1` [Compound 10r, 1-(2-Ethylphenyl)-3-(3-(6-(pyrrolidin-1-yl)pyridin-2-yl)phenyl)urea], on CB1 receptor [1] (Table 1, CP55,940 as agonist), the β-arrestin % inhibition amounted to 76%. Further, the concentration for a half-maximal effect (EC50) on CB1 receptor [1] (setting [3]) was determined as 3320 nM; on CB1 receptor [2] (setting [5]), 1190 ± 120 nM. For the same compound, the cAMP % inhibition on CB1 receptor [2] (setting [4]) is reported as 42%.
In the same order, the values of `Cc1cc(Cl)ccc1NC(=O)Nc1cccc(-c2cccc(N3CCCC3)n2)c1` [Compound 10s, 1-(4-Chloro-2-methylphenyl)-3-(3-(6-(pyrrolidin-1-yl)pyridin-2-yl)phenyl)urea] are 109%, 209 nM, more than 10000 nM and 18%.
The matching figures for `O=C(Nc1ccc(F)cc1)Nc1cccc(-c2cccc(N3CCCC3)n2)c1` [Compound 10t, 1-(4-Fluorophenyl)-3-(3-(6-(pyrrolidin-1-yl)pyridin-2-yl)phenyl)urea]: 108%, 7 nM, 148 nM and 119%.
In the same order, the values of `O=C(Nc1cccc(-c2cccc(N3CCCC3)n2)c1)Nc1ccccc1F` [Compound 10u, 1-(2-Fluorophenyl)-3-(3-(6-(pyrrolidin-1-yl)pyridin-2-yl)phenyl)urea] are 107%, 99 nM, 330 nM and 79%.
Consider `CC(C)c1ccccc1NC(=O)Nc1cccc(-c2cccc(N3CCCC3)n2)c1` [Compound 10v, 1-(2-Isopropylphenyl)-3-(3-(6-(pyrrolidin-1-yl)pyridin-2-yl)phenyl)urea], for which the β-arrestin % inhibition on CB1 receptor [1] was 66%. Also, the results for the EC50 at CB1 receptor [1] (β-arrestin EC50 nM) and at CB1 receptor [2] (cAMP EC50 nM) were 4200 nM and 4810 nM, respectively. Also, at CB1 receptor [2], the cAMP % inhibition is on record as 70%.
Take `O=C(Nc1cccc(-c2cccc(N3CCCC3)n2)c1)Nc1cccc2ccccc12` [Compound 10w, 1-(Naphthalen-1-yl)-3-(3-(6-(pyrrolidin-1-yl)pyridin-2-yl)phenyl)urea]: the β-arrestin % inhibition at CB1 receptor [1] (Table 1, CP55,940 as agonist) was 109%. Besides, the EC50 at CB1 receptor [1] (setting [3]) came to 1270 nM; at CB1 receptor [2] (setting [5]) it was 1260 ± 125 nM. At CB1 receptor [2] (setting [4]), the cAMP % inhibition was 69%.
